# Source: US20040171566A1, “Antisense modulation of p38 mitogen activated protein kinase expression” (priority 1999, published 2004)
# In the oligonucleotide strings, read from the 5' end, every base follows the letter of its sugar. An asterisk marks phosphorothioate; unmarked linkages are phosphodiester. Other units and linkages are bracketed, terminal groups are in braces. A string of capitals states the bases alone. e = 2'-O-(2-methoxyethyl) (MOE); [5mC] = 5-methylcytosine; d = 2'-deoxy (DNA)
# How the values were obtained:
# human p38α mRNA [1] = assay: Human p38α mRNA expression in T-24 cells
# human p38β mRNA = assay: Human p38β mRNA expression in T-24 cells
# human p38α mRNA [2] = assay: Inhibition of human p38α mRNA expression in Jurkat cells, Northern blot; assay type: cell-based
# Method: The human Jurkat T-cell line (American Type Culture Collection, Manassas, Va.) was maintained in RPMI 1640 growth media supplemented with 10% fetal bovine serum (FBS; Hyclone, Logan, Utah). HUVEC cells (Clonetics, San Diego, Calif.) were cultivated in endothelial basal media supplemented with 10% FBS (Hyclone, Logan, Utah).
# Jurkat cells were grown to approximately 75% confluency and resuspended in culture media at a density of 1×10^7 cells/ml. A total of 3.6×10^6 cells were employed for each treatment by combining 360 μl of cell suspension with oligonucleotide at the indicated concentrations to reach a final volume of 400 μl. Cells were then transferred to an electroporation cuvette and electroporated using an Electrocell Manipulator 600 instrument (Biotechnologies and Experimental Research, Inc.) employing 150 V, 1000 μF, at 13 Ω. Electroporated cells were then transferred to conical tubes containing 5 ml of culture media, mixed by inversion, and plated onto 10 cm culture dishes.
# Total mRNA was isolated using the RNEASY7 Mini Kit (Qiagen, Valencia, Calif.; similar kits from other manufacturers may also be used), separated on a 1% agarose gel, transferred to HYBOND™-N+ membrane (Amersham Pharmacia Biotech, Piscataway, N.J.), a positively charged nylon membrane, and probed. p38 MAPK probes were made using the Prime-A-Gene7 kit (Promega Corporation, Madison, Wis.), a random primer labeling kit, using mouse p38α or p38β cDNA as a template. A glyceraldehyde 3-phosphate dehydrogenase (G3PDH) probe was purchased from Clontech (Palo Alto, Calif.), Catalog Number 9805-1. The fragments were purified from low-melting temperature agarose, as described in Maniatis, T., et al., Molecular Cloning: A Laboratory Manual, 1989. The G3PDH probe was labeled with REDIVUE™ ^32P-dCTP (Amersham Pharmacia Biotech, Piscataway, N.J.) and Strip-EZ labelling kit (Ambion, Austin, Tex.). mRNA was quantitated by a PhosphoImager (Molecular Dynamics, Sunnyvale, Calif.).
# Jurkat cells were grown and treated as described above except the concentration of oligonucleotide was varied as indicated in Table 3. […] Maximum inhibition was approximately 70% with 16500 (SEQ ID NO 17).
# [3] = initial screen of human p38β oligonucleotides
# [4] = Jurkat cells electroporated with 10 μM oligonucleotide, Northern blot
sequence,measurement,setting,value
TACCAGCGCGTGGCCACATA (antisense eTeAe[5mC]e[5mC]eA*dG*d[5mC]*dG*d[5mC]*dG*dT*dG*dG*d[5mC]*d[5mC]*eAe[5mC]eAeTeA) [ISIS 107875],% p38α mRNA EXPRESSION,human p38α mRNA [1]; [3],112%
same,% p38β mRNA Expression,"human p38β mRNA; dose 50 nM, relative to control oligonucleotide = 100%",82%
same,% p38β mRNA Expression,"human p38β mRNA; dose 100 nM, relative to control oligonucleotide = 100%",38%
same,% p38β mRNA Expression,"human p38β mRNA; dose 200 nM, relative to control oligonucleotide = 100%",40%
same,% p38β mRNA Expression,human p38β mRNA; [3],92%
TGTGCCGAATCTCGGCCTCT (antisense eT*eG*eT*eG*e[5mC]*e[5mC]*dG*dA*dA*dT*dC*dT*dC*dG*eG*e[5mC]*e[5mC]*eT*e[5mC]*eT) [ISIS 16490],% mRNA EXPRESSION,human p38α mRNA [2]; [4],152%
same,% mRNA Inhibition,human p38α mRNA [2]; [4],no inhibition
same,% mRNA EXPRESSION,"human p38α mRNA [2]; Jurkat cells, dose 2.5 nM",112%
same,% mRNA EXPRESSION,"human p38α mRNA [2]; Jurkat cells, dose 5 nM",109%
same,% mRNA EXPRESSION,"human p38α mRNA [2]; Jurkat cells, dose 10 nM",104%
same,% mRNA EXPRESSION,"human p38α mRNA [2]; Jurkat cells, dose 20 nM",97%
same,% mRNA Inhibition,"human p38α mRNA [2]; Jurkat cells, dose 20 nM",3%
ATGTTCTTCCAGTCAACAGC (antisense eA*eT*eG*eT*eT*e[5mC]*dT*dT*dC*dC*dA*dG*dT*dC*eA*eA*e[5mC]*eA*eG*e[5mC]) [ISIS 16498],% mRNA EXPRESSION,human p38α mRNA [2]; [4],88%
same,% mRNA Inhibition,human p38α mRNA [2]; [4],12%
"TATGGTCTGTACCAGGAAAC (chimeric deoxy gapped, phosphorothioate, further chemistry not given here) [ISIS 100870]",% P38α mRNA EXPRESSION,human p38α mRNA [1]; initial screen of human p38α oligonucleotides,51%
ACACATGCACACACACTAAC (antisense eA*e[5mC]*eA*e[5mC]*eA*eT*dG*dC*dA*dC*dA*dC*dA*dC*eA*e[5mC]*eT*eA*eA*e[5mC]) [ISIS 16505],% mRNA EXPRESSION,human p38α mRNA [2]; [4],93%
same,% mRNA Inhibition,human p38α mRNA [2]; [4],7%
AAGACCGGGCCCGGAATTCC (antisense eA*eA*eG*eA*e[5mC]*e[5mC]*dG*dG*dG*dC*dC*dC*dG*dG*eA*eA*eT*eT*e[5mC]*e[5mC]) [ISIS 16486],% mRNA EXPRESSION,human p38α mRNA [2]; [4],212%
CATTTTCCAGCGGCAGCCGC (antisense e[5mC]*eA*eT*eT*eT*eT*dC*dC*dA*dG*dC*dG*dG*dC*eA*eG*e[5mC]*e[5mC]*eG*e[5mC]) [ISIS 16493],% mRNA EXPRESSION,human p38α mRNA [2]; [4],101%
CTTCCACCATGGAGGAAATC (antisense e[5mC]*eT*eT*e[5mC]*e[5mC]*eA*dC*dC*dA*dT*dG*dG*dA*dG*eG*eA*eA*eA*eT*e[5mC]) [ISIS 16504],% mRNA EXPRESSION,human p38α mRNA [2]; [4],72%
same,% mRNA Inhibition,human p38α mRNA [2]; [4],28%
GGTCTCGGGCGACCTCTCCT (antisense eG*eG*eT*e[5mC]*eT*e[5mC]*dG*dG*dG*dC*dG*dA*dC*dC*eT*e[5mC]*eT*e[5mC]*e[5mC]*eT) [ISIS 16491],% mRNA EXPRESSION,human p38α mRNA [2]; [4],148%
TGAAAAGGCCTTCCCCTCAC (antisense eT*eG*eA*eA*eA*eA*dG*dG*dC*dC*dT*dT*dC*dC*e[5mC]*e[5mC]*eT*e[5mC]*eA*e[5mC]) [ISIS 16502],% mRNA EXPRESSION,human p38α mRNA [2]; [4],79%
same,% mRNA Inhibition,human p38α mRNA [2]; [4],21%
GTGGAGGCCAGTCCCCGGGA [ISIS 16487],% mRNA EXPRESSION,human p38α mRNA [2]; [4],171%
GTAAGCTTCTGACATTTCAC (antisense eG*eT*eA*eA*eG*e[5mC]*dT*dT*dC*dT*dG*dA*dC*dA*eT*eT*eT*e[5mC]*eA*e[5mC]) [ISIS 16496],% mRNA EXPRESSION,human p38α mRNA [2]; [4],61%
same,% mRNA EXPRESSION,"human p38α mRNA [2]; Jurkat cells, dose 2.5 nM",94%
same,% mRNA Inhibition,"human p38α mRNA [2]; Jurkat cells, dose 2.5 nM",6%
same,% mRNA EXPRESSION,"human p38α mRNA [2]; Jurkat cells, dose 5 nM",74%
same,% mRNA Inhibition,"human p38α mRNA [2]; Jurkat cells, dose 5 nM",26%
same,% mRNA EXPRESSION,"human p38α mRNA [2]; Jurkat cells, dose 10 nM",47%
same,% mRNA Inhibition,"human p38α mRNA [2]; Jurkat cells, dose 10 nM",53%
same,% mRNA EXPRESSION,"human p38α mRNA [2]; Jurkat cells, dose 20 nM",41%
same,% mRNA Inhibition,"human p38α mRNA [2]; Jurkat cells, dose 20 nM",59%
AGGCACTTGAATAATATTTG (eA*eG*eG*e[5mC]*eA*e[5mC]*dT*dT*dG*dA*dA*dT*dA*dA*eT*eA*eT*eT*eT*eG; antisense) [ISIS 16503],% mRNA EXPRESSION,human p38α mRNA [2]; [4],65%
same,% mRNA EXPRESSION,"human p38α mRNA [2]; Jurkat cells, dose 2.5 nM",74%
same,% mRNA Inhibition,"human p38α mRNA [2]; Jurkat cells, dose 2.5 nM",26%
same,% mRNA EXPRESSION,"human p38α mRNA [2]; Jurkat cells, dose 5 nM",61%
same,% mRNA Inhibition,"human p38α mRNA [2]; Jurkat cells, dose 5 nM",39%
same,% mRNA EXPRESSION,"human p38α mRNA [2]; Jurkat cells, dose 10 nM",53%
same,% mRNA Inhibition,"human p38α mRNA [2]; Jurkat cells, dose 10 nM",47%
same,% mRNA EXPRESSION,"human p38α mRNA [2]; Jurkat cells, dose 20 nM",41%
same,% mRNA Inhibition,"human p38α mRNA [2]; Jurkat cells, dose 20 nM",59%
AACCAGGTGCTCAGGACTCC (antisense eA*eA*e[5mC]*e[5mC]*eA*eG*dG*dT*dG*dC*dT*dC*dA*dG*eG*eA*e[5mC]*eT*e[5mC]*e[5mC]) [ISIS 16500],% mRNA EXPRESSION,human p38α mRNA [2]; [4],63%
same,% mRNA EXPRESSION,"human p38α mRNA [2]; Jurkat cells, dose 2.5 nM",82%
same,% mRNA Inhibition,"human p38α mRNA [2]; Jurkat cells, dose 2.5 nM",18%
same,% mRNA EXPRESSION,"human p38α mRNA [2]; Jurkat cells, dose 5 nM",71%
same,% mRNA Inhibition,"human p38α mRNA [2]; Jurkat cells, dose 5 nM",29%
same,% mRNA EXPRESSION,"human p38α mRNA [2]; Jurkat cells, dose 10 nM",49%
same,% mRNA Inhibition,"human p38α mRNA [2]; Jurkat cells, dose 10 nM",51%
same,% mRNA EXPRESSION,"human p38α mRNA [2]; Jurkat cells, dose 20 nM",31%
same,% mRNA Inhibition,"human p38α mRNA [2]; Jurkat cells, dose 20 nM",69%
same,Maximum inhibition of p38α mRNA,"human p38α mRNA [2]; Jurkat cells, dose response",approximately 70%
TTTAGGTCCCTGTGAATTAT (eT*eT*eT*eA*eG*eG*dT*dC*dC*dC*dT*dG*dT*dG*eA*eA*eT*eT*eA*eT; antisense) [ISIS 16497],% mRNA EXPRESSION,human p38α mRNA [2]; [4],104%
